In patent US20020081733A1, “METHOD TO PREPARE DRUG-RESISTANT, NON-MALIGNANT HEMATOPOIETIC CELLS” (priority 1998, published 2002):

Key:
[1] = system: CML 34^+DR^+ CFC and LTC-IC; assay: MTX sensitivity of NL and CML CFC and LTC-IC (serum-free methylcellulose assay / LTC); format: cell-based, human; settings: increasing MTX concentrations, FIG. 2A, 2B
Procedure: (§1) FIG. 2. Drug sensitivity of untransduced cells. A) NL and CML 34^+DR^+ cells were plated in a serum-free methylcellulose assay with increasing MTX concentrations to determine the MTX sensitivity of CFC. B) NL 34^+DR^− cells (LTC-IC) and CML 34^+DR^+ (Ph^+ LTC-IC) cells were incubated for 1 week in serum-free medium and cytokines with increasing MTX concentrations and then replated in LTC for 5 weeks. The number of MTX resistant LTC-IC was determined by replating LTC derived progeny in methylcellulose without […]. C) NL and CML 34^+DR^+ cells were plated directly in methylcellulose with increasing concentrations of taxol. D) NL 34^+DR^− cells (LTC-IC) and CML 34^+DR^+ (Ph^+LTC-IC) were plated in liquid culture for 7 days with increasing concentrations of taxol and then replated in LTC.
To determine the MTX sensitivity of normal (NL) and CML CFC cells, NL and CML 34^+DR^+ cells were plated in a serum-free methylcellulose assay with increasing MTX concentrations (FIG. 2A). To determine the MTX sensitivity of NL and CML LTC-IC cells, NL 34^+DR^− cells (LTC-IC) and CML 34^+DR^+ (Ph^+ LTC-IC) cells were also incubated for I week in serum-free medium and cytokines, with increasing MTX concentrations. The cells were then replated in LTC for 5 weeks. The number of MTX resistant LTC-IC was determined by replating LTC derived progeny in methylcellulose assay without MTX (FIG. 2B).

CML and NL progenitors = assay: Taxol sensitivity of NL and CML cells (methylcellulose / liquid culture then LTC); format: cell-based, human; settings: increasing concentrations of taxol; FIG. 2C, 2D
Procedure: as §1
To determine the taxol sensitivity of NL and CML cells, NL and CML 34^+DR^+ and 34^+DR^− cells were plated either in liquid culture for 7 days with increasing concentrations of taxol and then replated in LTC (FIG. 2D). NL and CML cells were also plated directly in methylcellulose with increasing concentrations of taxol (FIG. 2C).

## CN(Cc1cnc2nc(N)nc(N)c2n1)c1ccc(C(=O)N[C@@H](CCC(=O)O)C(=O)O)cc1 [MTX, methotrexate]
[1]
  MTX sensitivity of CML 34+DR+ CFC and LTC-IC relative to NL 34+DR+ CFC and NL 34+DR− LTC-IC: at least equally sensitive

## CC(=O)O[C@H]1C(=O)[C@@]2(C)[C@H]([C@H](OC(=O)c3ccccc3)[C@]3(O)C[C@H](OC(=O)[C@H](O)[C@@H](NC(=O)c4ccccc4)c4ccccc4)C(C)=C1C3(C)C)[C@]1(OC(C)=O)CO[C@@H]1C[C@@H]2O [taxol]
CML and NL progenitors
  taxol sensitivity of CML versus NL progenitors: equal sensitivity
